Laboratory results published in patent publication US11752165B2, “Basic chemotherapeutic intratumour injection formulation” (US NANO FOOD & DRUG, INC., priority 2020, dated 2023).
≈ marks a conversion by molar mass, not a printed value. Entries after “also recorded” stand apart in the source; their conditions may differ. Structures can show the parent of a compound that is named as a salt. Where two headings read alike, the source gives them in different places.

Experiments:
[1] = cited from earlier work; for Solubility in water (in words): background statement
[2] = background statement; cited from earlier work
[3] = background statement, cited from earlier work
[4] = Stability of the basic (free base) chemical; conditions: detailed description
[5] = Solubility in oil, ethanol and other organic liquids; conditions: for Solubility in organic liquids (in words): detailed description; for Solubility in ethanol / Solubility in oil: Table 2, yes/no
Solubility in water = conditions: for Solubility in water (in words): detailed description; for Solubility in H2O: Table 2, yes/no
[6] = 5 mg/mL aqueous solution; cited from earlier work
[7] = format: physicochemical
[8] = cited from earlier work
mice = conditions: mouse, in vivo, ip; cited from earlier work
[9] = serum, rapid intravenous injection, patients with cancer

With `COc1cccc2c1C(=O)c1c(O)c3c(c(O)c1C2=O)C[C@@](O)(C(C)=O)C[C@@H]3O[C@H]1C[C@H](N)[C@H](O)[C@H](C)O1` [Daunorubicin base, daunorubicin] as the compound, how does the “Solubility in water (in words)” value [1] read?
The value was “insoluble in water”.

And the “Stability of the basic chemical (in words)” value [2]?
The value was “unstable”.

What about the “Solubility in organic liquids (in words)” value [3] of the same compound?
Its value is “slightly soluble in an organic liquid”.

What about the “Stability of the base form (in words)” value [4] of the same compound?
The value was “not stable in base form”.

And the “Solubility in organic liquids (in words)” value [5]?
The value was “slightly soluble in an organic liquid such as oleic acid, PEG and ethanol”.

What about the “Solubility in water (in words)” value (Solubility in water) of the same compound?
Its value is “insoluble in water”.

For `COc1cccc2c1C(=O)c1c(O)c3c(c(O)c1C2=O)C[C@@](O)(C(C)=O)C[C@@H]3O[C@H]1C[C@H](N)[C@H](O)[C@H](C)O1` [Daunorubicin hydrochloride], which “Solubility in water (in words)” value ([1]; hydrochloride) is on record?
Its value is “soluble in water”.

For `COc1cccc2c1C(=O)c1c(O)c3c(c(O)c1C2=O)C[C@@](O)(C(=O)CO)C[C@@H]3O[C@H]1C[C@H](N)[C@H](O)[C@H](C)O1` [Doxorubicin Hydrochloride], which “Solubility in water (in words)” value ([1]; hydrochloride) is on record?
The value was “soluble in water”.

And the “pH of aqueous solution” value [6]?
Its value is 4.0-5.5.

Which “Solubility in water (in words)” value [1] does the source give for `COc1cccc2c1C(=O)c1c(O)c3c(c(O)c1C2=O)C[C@@](O)(C(=O)CO)C[C@@H]3O[C@H]1C[C@H](N)[C@H](O)[C@H](C)O1` [Doxorubicin base, doxorubicin] here?
Its value is “insoluble in water”.

What about the “Stability of the basic chemical (in words)” value [2] of the same compound?
The value was “unstable”.

And the “Solubility in organic liquids (in words)” value [3]?
Its value is “slightly soluble in an organic liquid”.

What about the “Solubility in organic liquids (in words)” value [5] of the same compound?
Its value is “slightly soluble alcohols; also recorded: moderately soluble in anhydrous methanol”.

And the pH in water ([7]; 10 mg in 5 ml of water)?
The pH in water was 7.9.

Which “Solubility in water (in words)” value ([1]; hydrochloride) does the source give for `COc1cccc2c1C(=O)c1c(O)c3c(c(O)c1C2=O)C[C@@](O)(C(=O)CO)C[C@@H]3O[C@H]1C[C@H](N)[C@@H](O)[C@H](C)O1` [Epirubicin hydrochloride] here?
The value was “soluble in water”.

Which “Solubility in water (in words)” value [1] does the source give for `O=C1c2c(O)ccc(O)c2C(=O)c2c(NCCNCCO)ccc(NCCNCCO)c21` [Mitoxantrone base, mitoxantrone] here?
The value was “insoluble in water”.

What about the “Solubility in organic liquids (in words)” value [3] of the same compound?
Its value is “slightly soluble in an organic liquid”.

What about the “Stability of the base form (in words)” value [4] of the same compound?
Its value is “the basic form is stable”.

What about the “Solubility in organic liquids (in words)” value [5] of the same compound?
Its value is “slightly soluble in methanol; also recorded: practically insoluble in acetonitrile chloroform and acetone”.

And the pH in water ([7]; 25 mg in 10 ml water)?
Its pH in water is 9.42.

What about the “Solubility in water (in words)” value (Solubility in water) of the same compound?
Its value is “sparingly soluble in water”.

Which “Solubility in water (in words)” value [1] does the source give for `CC[C@]1(O)C[C@@H]2CN(CCc3c([nH]c4ccccc34)[C@@](C(=O)OC)(c3cc4c(cc3OC)N(C)[C@H]3[C@@](O)(C(=O)OC)[C@H](OC(C)=O)[C@]5(CC)C=CCN6CC[C@]43[C@@H]65)C2)C1` [Vinblastine sulphate] here?
Its value is “One part is soluble in 10 parts of water”.

And the “Crossing of the blood brain barrier (in words)” value ([8]; following IV administration)?
Its value is “crosses the blood brain barrier poorly”.

What about the Solubility in ethanol ([5]; listed as Vinblastine H2SO4) of the same compound?
The Solubility in ethanol was “no”.

What about the Solubility in oil ([5]; listed as Vinblastine H2SO4) of the same compound?
Its Solubility in oil is “no”.

And the “Solubility in H2O” value (Solubility in water; listed as Vinblastine H2SO4)?
Its value is “yes”.

What about the “Solubility in water (in words)” value (Solubility in water; listed as Vinblastine sulfate) of the same compound?
Its value is “soluble in water”.

What does the source list for `CC[C@]1(O)C[C@@H]2CN(CCc3c([nH]c4ccccc34)[C@@](C(=O)OC)(c3cc4c(cc3OC)N(C)[C@H]3[C@@](O)(C(=O)OC)[C@H](OC(C)=O)[C@]5(CC)C=CCN6CC[C@]43[C@@H]65)C2)C1` [Vinblastine]?
Solubility in water (in words) ([1]; listed as vinblastine): insoluble in water; Initial half-life [8, 9]: 3.7 min; Middle half-life [8, 9]: 1.6 h; Terminal half-life [8, 9]: 24.8 h; Solubility in organic liquids (in words) ([3]; listed as vinblastine): slightly soluble in an organic liquid; Stability of the base form (in words) [4]: unstable at room temperature; Solubility in ethanol [5]: yes; Solubility in oil [5]: yes; Solubility in organic liquids (in words) [5]: soluble in alcohol, acetone, chloroform, ethyl acetate; Solubility in H2O (Solubility in water): no; Solubility in water (in words) (Solubility in water): practically insoluble in water; Solubility in water (in words) (Solubility in water; listed as vinblastine base): not soluble in water

With `CC[C@]1(O)C[C@H]2CN(CCc3c([nH]c4ccccc34)[C@@](C(=O)OC)(c3cc4c(cc3OC)N(C=O)[C@H]3[C@@](O)(C(=O)OC)[C@H](OC(C)=O)[C@]5(CC)C=CCN6CC[C@]43[C@@H]65)C2)C1` [Vincristine sulfate] as the compound, how does the “Solubility in water (in words)” value [1] read?
The value was “freely soluble in water”.

And the Solubility in ethanol ([5]; listed as Vincristine H2SO4)?
The Solubility in ethanol was “no”.

What about the Solubility in oil ([5]; listed as Vincristine H2SO4) of the same compound?
Its Solubility in oil is “no”.

And the “Solubility in H2O” value (Solubility in water; listed as Vincristine H2SO4)?
The value was “yes”.

Which Solubility in water ([1]; 25° C.) does the source give for `CC[C@]1(O)C[C@H]2CN(CCc3c([nH]c4ccccc34)[C@@](C(=O)OC)(c3cc4c(cc3OC)N(C=O)[C@H]3[C@@](O)(C(=O)OC)[C@H](OC(C)=O)[C@]5(CC)C=CCN6CC[C@]43[C@@H]65)C2)C1` [Vincristine] here?
Its Solubility in water is 2.27 µg/mL (≈ 2.75 µM).

And the “Solubility in water (in words)” value [1]?
Its value is “practically insoluble in water”.

What about the “Solubility in water (in words)” value ([1]; listed as vincristine) of the same compound?
The value was “insoluble in water”.

What about the “Stability of the basic chemical (in words)” value [2] of the same compound?
The value was “unstable”.

What about the “Solubility in organic liquids (in words)” value [3] of the same compound?
Its value is “soluble in alcohol, acetone, and chloroform”.

What about the “Solubility in organic liquids (in words)” value ([3]; listed as vincristine) of the same compound?
The value was “slightly soluble in an organic liquid”.

What about the LD50 (mice) of the same compound?
The LD50 was 5.2 mg/kg.

And the Solubility in ethanol [5]?
Its Solubility in ethanol is “yes”.

And the Solubility in oil [5]?
Its Solubility in oil is “yes”.

And the “Solubility in H2O” value (Solubility in water)?
The value was “no”.

What about the “Solubility in water (in words)” value (Solubility in water) of the same compound?
The value was “not soluble in water”.

For `CC[C@]1(O)C[C@@H]2CN(CCc3c([nH]c4ccccc34)[C@@](C(=O)OC)(c3cc4c(cc3OC)N(C)[C@H]3[C@@](O)(C(N)=O)[C@H](O)[C@]5(CC)C=CCN6CC[C@]43[C@@H]65)C2)C1` [Vindesine], which “Solubility in water (in words)” value [1] is on record?
Its value is “insoluble in water”.

What about the “Stability of the basic chemical (in words)” value [2] of the same compound?
The value was “unstable”.

And the “Solubility in organic liquids (in words)” value [3]?
Its value is “slightly soluble in an organic liquid”.

What about the “Stability of the base form (in words)” value [4] of the same compound?
The value was “not stable”.

What about the Solubility in ethanol [5] of the same compound?
The Solubility in ethanol was “yes”.

And the Solubility in oil [5]?
The Solubility in oil was “yes”.

And the “Solubility in organic liquids (in words)” value [5]?
Its value is “soluble in alcohol, acetone”.

What about the “Solubility in H2O” value (Solubility in water) of the same compound?
The value was “no”.

And the “Solubility in water (in words)” value (Solubility in water)?
Its value is “practically insoluble in water”.

Which “Solubility in water (in words)” value [1] does the source give for `COc1cccc2c1C(=O)c1c(O)c3c(c(O)c1C2=O)C[C@@](O)(C(=O)CO)C[C@@H]3O[C@H]1C[C@H](N)[C@@H](O)[C@H](C)O1` [epirubicin base, epirubicin] here?
Its value is “insoluble in water”.

What about the “Stability of the basic chemical (in words)” value [2] of the same compound?
The value was “unstable”.

And the “Solubility in organic liquids (in words)” value [3]?
Its value is “slightly soluble in an organic liquid”.

What about the Solubility in water (Solubility in water) of the same compound?
Its Solubility in water is 0.093 mg per ml.

And the “Solubility in water (in words)” value (Solubility in water)?
The value was “insoluble in water”.

Which “Solubility in water (in words)” value [1] does the source give for `C=C1C[C@@H]2CC[C@@]34C[C@H]5O[C@H]6[C@@H](O3)[C@H]3O[C@H](CC[C@@H]3O[C@H]6[C@H]5O4)CC(=O)C[C@@H]3[C@@H](OC)[C@@H](C[C@H](O)CN)O[C@H]3C[C@H]3O[C@@H](CC[C@@H]1O2)C[C@@H](C)C3=C` [eribulin] here?
The value was “insoluble in water”.

And the “Stability of the basic chemical (in words)” value [2]?
The value was “unstable”.

What about the “Solubility in organic liquids (in words)” value [3] of the same compound?
Its value is “slightly soluble in an organic liquid”.
